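Grown in 96-well plates, cells were treated for 48 hours with each compound at five concentrations. Insufficient inhibition: endpoint recorded as highest concentration tested. TGI marks complete inhibition of growth.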
Tests used:
Assay in all cases: NCI anticancer screen, dose series, 48 h
SR leukemia = test system: SR leukemia
U251 CNS = test system: U251 CNS
HCT-15 colon = test system: HCT-15 colon
SNB-19 CNS = test system: SNB-19 CNS
HT29 colon = test system: HT29 colon
UACC-62 melanoma = test system: UACC-62 melanoma
BT-549 breast = test system: BT-549 breast
MDA-MB-231 breast = test system: MDA-MB-231 breast
NCI-H23 lung = test system: NCI-H23 lung
HOP-62 NSCLC = test system: HOP-62 NSCLC
KM12 colon = test system: KM12 colon
SK-OV-3 ovarian = test system: SK-OV-3 ovarian
OVCAR-5 ovarian = test system: OVCAR-5 ovarian
HCC-2998 colon = test system: HCC-2998 colon
SK-MEL-2 melanoma = test system: SK-MEL-2 melanoma
NCI-H460 lung = test system: NCI-H460 lung
RXF 393 renal = test system: RXF 393 renal
EKVX NSCLC = test system: EKVX NSCLC
UO-31 renal = test system: UO-31 renal
MOLT-4 leukemia = test system: MOLT-4 leukemia
MCF7 breast = test system: MCF7 breast
LOX IMVI melanoma = test system: LOX IMVI melanoma
SF-268 CNS = test system: SF-268 CNS
MALME-3M melanoma = test system: MALME-3M melanoma
UACC-257 melanoma = test system: UACC-257 melanoma
T-47D breast = test system: T-47D breast
M14 melanoma = test system: M14 melanoma
TK-10 renal = test system: TK-10 renal
NCI-H522 lung = test system: NCI-H522 lung
SK-MEL-28 melanoma = test system: SK-MEL-28 melanoma
HS 578T breast = test system: HS 578T breast
HCT-116 colon = test system: HCT-116 colon
SN12C renal = test system: SN12C renal
OVCAR-3 ovarian = test system: OVCAR-3 ovarian
MDA-MB-435 = test system: MDA-MB-435
RPMI-8226 leukemia = test system: RPMI-8226 leukemia
SNB-75 CNS = test system: SNB-75 CNS
A498 renal = test system: A498 renal
HL-60(TB) leukemia = test system: HL-60(TB) leukemia
SF-539 CNS = test system: SF-539 CNS
NCI-H226 lung = test system: NCI-H226 lung
CCRF-CEM leukemia = test system: CCRF-CEM leukemia
DU-145 prostate = test system: DU-145 prostate
MDA-N = test system: MDA-N
ACHN renal = test system: ACHN renal
K-562 leukemia = test system: K-562 leukemia
OVCAR-8 ovarian = test system: OVCAR-8 ovarian
COLO 205 colon = test system: COLO 205 colon
SF-295 CNS = test system: SF-295 CNS
A549 NSCLC = test system: A549 NSCLC
IGROV1 ovarian = test system: IGROV1 ovarian
786-0 renal = test system: 786-0 renal
PC-3 prostate = test system: PC-3 prostate
HOP-92 NSCLC = test system: HOP-92 NSCLC
NCI/ADR-RES ovarian = test system: NCI/ADR-RES ovarian
OVCAR-4 ovarian = test system: OVCAR-4 ovarian
CAKI-1 renal = test system: CAKI-1 renal
SW-620 colon = test system: SW-620 colon
SK-MEL-5 melanoma = test system: SK-MEL-5 melanoma

Measured: TGI

CCOC(=O)NC(Nc1ncccn1)(C(F)(F)F)C(F)(F)F
> 100 µM: SR leukemia | U251 CNS | HCT-15 colon | SNB-19 CNS | HT29 colon | UACC-62 melanoma | BT-549 breast | MDA-MB-231 breast | NCI-H23 lung | HOP-62 NSCLC | KM12 colon | SK-OV-3 ovarian | OVCAR-5 ovarian | HCC-2998 colon | SK-MEL-2 melanoma | NCI-H460 lung | RXF 393 renal | EKVX NSCLC | UO-31 renal | MOLT-4 leukemia | MCF7 breast | LOX IMVI melanoma | SF-268 CNS | MALME-3M melanoma | UACC-257 melanoma | T-47D breast | M14 melanoma | TK-10 renal | NCI-H522 lung | SK-MEL-28 melanoma | HS 578T breast | HCT-116 colon | SN12C renal | OVCAR-3 ovarian | MDA-MB-435 | RPMI-8226 leukemia | SNB-75 CNS | A498 renal | HL-60(TB) leukemia | SF-539 CNS | NCI-H226 lung | CCRF-CEM leukemia | DU-145 prostate | MDA-N | ACHN renal | K-562 leukemia

C=CCOC(=O)N1[C@H]2C#C/C=C\C#C[C@]3(O)C(=O)C[C@H](C)[C@]24O[C@]43C2=CC(=O)C=CC21OC (stereo partly drawn)
63.6 µM: ACHN renal
44.6 µM: HCT-116 colon
47.8 µM: NCI-H460 lung
67.4 µM: SN12C renal
29.9 µM: SR leukemia
67.7 µM: KM12 colon
67.3 µM: IGROV1 ovarian
38.7 µM: 786-0 renal
82.5 µM: SNB-75 CNS
92.8 µM: HL-60(TB) leukemia
38.8 µM: COLO 205 colon
77.6 µM: HCC-2998 colon
84.2 µM: OVCAR-4 ovarian
85.9 µM: MDA-MB-231 breast
38 µM: A498 renal
52.9 µM: MOLT-4 leukemia
75.2 µM: HT29 colon
> 100 µM: U251 CNS | HCT-15 colon | SNB-19 CNS | UACC-62 melanoma | SF-295 CNS | A549 NSCLC | NCI-H23 lung | HOP-62 NSCLC | SK-OV-3 ovarian | OVCAR-5 ovarian | EKVX NSCLC | UO-31 renal | MCF7 breast | SF-268 CNS | MALME-3M melanoma | T-47D breast | M14 melanoma | PC-3 prostate | HOP-92 NSCLC | SK-MEL-28 melanoma | HS 578T breast | NCI/ADR-RES ovarian | MDA-MB-435 | NCI-H226 lung | CAKI-1 renal | DU-145 prostate | MDA-N | SW-620 colon | K-562 leukemia
47.9 µM: OVCAR-8 ovarian
81.5 µM: RPMI-8226 leukemia
47.7 µM: RXF 393 renal
63.7 µM: TK-10 renal
48.5 µM: NCI-H522 lung
45.8 µM: SF-539 CNS
66.5 µM: SK-MEL-2 melanoma
59 µM: UACC-257 melanoma
79.5 µM: CCRF-CEM leukemia

COc1cc(-c2cn(S(=O)(=O)c3ccc(C)cc3)c3ccccc23)nc(-c2cn(S(=O)(=O)c3ccc(C)cc3)c3ccccc23)n1
0.927 µM: NCI-H23 lung
5.24 µM: HL-60(TB) leukemia
0.47 µM: MDA-MB-435
> 60.9 µM: HOP-92 NSCLC
0.592 µM: SF-539 CNS
> 33.8 µM: HCT-116 colon
> 22.5 µM: MOLT-4 leukemia
38.5 µM: PC-3 prostate
8.44 µM: KM12 colon
13.8 µM: U251 CNS
2 µM: HT29 colon
> 48.8 µM: A549 NSCLC
> 75.1 µM: UO-31 renal
0.506 µM: NCI-H522 lung
17 µM: M14 melanoma
> 56.9 µM: SW-620 colon
1.88 µM: MDA-N
32.1 µM: SNB-19 CNS
19.6 µM: OVCAR-5 ovarian
1.85 µM: DU-145 prostate
3.31 µM: COLO 205 colon
24.7 µM: CCRF-CEM leukemia
> 100 µM: SR leukemia | HCT-15 colon | OVCAR-8 ovarian | UACC-62 melanoma | BT-549 breast | HOP-62 NSCLC | SK-OV-3 ovarian | HCC-2998 colon | SK-MEL-2 melanoma | NCI-H460 lung | RXF 393 renal | EKVX NSCLC | MCF7 breast | LOX IMVI melanoma | 786-0 renal | UACC-257 melanoma | T-47D breast | TK-10 renal | HS 578T breast | NCI/ADR-RES ovarian | SN12C renal | OVCAR-3 ovarian | RPMI-8226 leukemia | SNB-75 CNS | A498 renal | OVCAR-4 ovarian | NCI-H226 lung | CAKI-1 renal | ACHN renal | K-562 leukemia
> 55.7 µM: SK-MEL-28 melanoma
> 91.7 µM: SF-295 CNS

COC(=O)c1c2c(cc3c1CC1(Cc4cc5c(c(C=O)c4C1)CCCC5)C3)CCCC2 (stereo not drawn)
47.3 µM: HCT-116 colon
59.9 µM: HL-60(TB) leukemia
> 100 µM: SR leukemia | U251 CNS | HCT-15 colon | OVCAR-8 ovarian | SK-MEL-5 melanoma | HT29 colon | UACC-62 melanoma | SF-295 CNS | A549 NSCLC | MDA-MB-231 breast | NCI-H23 lung | HOP-62 NSCLC | SK-OV-3 ovarian | OVCAR-5 ovarian | HCC-2998 colon | RXF 393 renal | EKVX NSCLC | IGROV1 ovarian | MOLT-4 leukemia | LOX IMVI melanoma | 786-0 renal | MALME-3M melanoma | UACC-257 melanoma | T-47D breast | M14 melanoma | PC-3 prostate | TK-10 renal | NCI-H522 lung | HOP-92 NSCLC | HS 578T breast | NCI/ADR-RES ovarian | SN12C renal | OVCAR-3 ovarian | MDA-MB-435 | RPMI-8226 leukemia | A498 renal | OVCAR-4 ovarian | SF-539 CNS | NCI-H226 lung | MDA-N | ACHN renal
85.3 µM: K-562 leukemia
36.6 µM: COLO 205 colon
87.2 µM: MCF7 breast
0.268 µM: UO-31 renal
85.1 µM: SK-MEL-2 melanoma

Source: PubChem BioAssay (NCI)
